This is an account of results in PubChem BioAssay (NCI).

Where “and” joins values, the source holds several entries; their conditions need not be identical. Equal entries are not always repeated.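 Protocol summary: plate cells (96-well), add compound at 5 concentrations, incubate 48 h, interpolate endpoints linearly. GI50 = concentration required for 50% inhibition of growth. TGI is the concentration that stops growth completely.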

Test systems include XF 498 CNS; SF-268 CNS; HCT-116 colon; SK-MEL-2 melanoma; SK-MEL-5 melanoma; SR leukemia; M19-MEL melanoma; UO-31 renal; IGROV1 ovarian; MDA-MB-435.
Test in all cases: NCI anticancer screen, dose series, 48 h

With `CC1=C(C(=O)Nc2ccc(C)cc2)C(c2cccc([N+](=O)[O-])c2)C(C(=O)Nc2ccc(C)cc2)=C(C)N1`, the TGI is 50.7 µM in the assay with XF 498 CNS; 52.2 µM in the assay on SF-268 CNS; greater than 100 µM in the assay with HCT-116 colon; 54.8 µM in the assay with SK-MEL-2 melanoma; 44.3 µM in the assay on SK-MEL-5 melanoma; 65.6 µM with SR leukemia. Moreover, the TGI in the assay on M19-MEL melanoma was 63.4 µM; in the assay on UO-31 renal, greater than 100 µM; in the assay on IGROV1 ovarian, 66.8 µM.
As for `Cc1ccccc1-n1c(CCl)nc2ccc(Br)cc2c1=O`, the TGI with SF-268 CNS was 10.8 µM; in the assay on HCT-116 colon it was 21.3 µM; in the assay on SK-MEL-2 melanoma it was 32.5 µM; in the assay on SK-MEL-5 melanoma, 22.9 µM; in the assay with SR leukemia, greater than 24.9 µM; with M19-MEL melanoma, 19.9 µM. Also, the values for the TGI in the assay on UO-31 renal and in the assay with IGROV1 ovarian were 28.2 µM and 33.1 µM, respectively.
As to `CC(=O)Nc1ccc(C2=N/C(=C\c3ccc(Cl)cc3)C(=O)O2)cc1`, the TGI is 61.4 µM in the assay with XF 498 CNS; 90.9 µM in the assay on SF-268 CNS; greater than 100 µM in the assay with HCT-116 colon; greater than 100 µM in the assay on SK-MEL-2 melanoma; greater than 100 µM in the assay on SK-MEL-5 melanoma; 61.2 µM in the assay with SR leukemia. The figures for the TGI in the assay with M19-MEL melanoma, in the assay with UO-31 renal and in the assay on IGROV1 ovarian were 57.5 µM, 73.9 µM and greater than 100 µM, respectively.
Regarding `COC(=O)C1=CC(=O)[C@@H]2CCCC[C@H]12`, the TGI in the assay with SF-268 CNS, in the assay on HCT-116 colon, in the assay with SK-MEL-2 melanoma, in the assay on SR leukemia, in the assay with M19-MEL melanoma and in the assay with UO-31 renal was greater than 100 µM in each case.
For `O=C(CC1(O)C(=O)Nc2ccccc21)c1ccccc1O` (centres undefined), the TGI in the assay with XF 498 CNS, in the assay with SF-268 CNS, in the assay with HCT-116 colon, in the assay with SK-MEL-2 melanoma, in the assay with SK-MEL-5 melanoma and with M19-MEL melanoma was greater than 100 µM in each case. The TGI in the assay on UO-31 renal and in the assay with IGROV1 ovarian was greater than 100 µM throughout.
For the compound `Clc1ccccc1C1SCc2nc3ccccc3n21` (centres undefined), the TGI was 87.2 µM in the assay on XF 498 CNS; greater than 100 µM in the assay on SF-268 CNS; 56.3 µM in the assay with HCT-116 colon; 57.1 µM with SK-MEL-2 melanoma; 33.7 µM with SK-MEL-5 melanoma; 59.6 µM in the assay on SR leukemia. Besides, the TGI in the assay on M19-MEL melanoma and with IGROV1 ovarian was greater than 100 µM each time.
For `CCc1ccccc1NC(=O)C(=O)C1C(=O)N(c2ccccc2)N=C1N` (centres undefined), the TGI with XF 498 CNS, in the assay on SF-268 CNS, in the assay on HCT-116 colon, with SK-MEL-2 melanoma, in the assay on SK-MEL-5 melanoma and in the assay on M19-MEL melanoma was greater than 100 µM throughout. Further, the TGI with UO-31 renal and in the assay with IGROV1 ovarian was greater than 100 µM each time.
With `N#CCCN(c1ccc(C=O)cc1)S(=O)(=O)c1ccccc1`, the TGI in the assay on XF 498 CNS, in the assay on SF-268 CNS, in the assay with HCT-116 colon, in the assay on SK-MEL-2 melanoma, with SK-MEL-5 melanoma and in the assay on SR leukemia was greater than 100 µM in each case. The TGI in the assay with M19-MEL melanoma, with UO-31 renal and with IGROV1 ovarian was greater than 100 µM throughout.
Consider `N#Cc1cccc(C2C(=O)c3ccc(C(=O)c4ccc5c(c4)C(=O)N(c4ccc(Oc6ccc(N7C(=O)c8ccc(C(=O)c9ccc%10c(c9)C(=O)N(c9cccc(C#N)c9)C%10=O)cc8C7=O)cc6)cc4)C5=O)cc3C2=O)c1` (centres undefined), for which the TGI in the assay with XF 498 CNS, in the assay with SF-268 CNS, with HCT-116 colon, in the assay on SK-MEL-2 melanoma, with SK-MEL-5 melanoma and in the assay on M19-MEL melanoma was greater than 100 µM each time. Further, the TGI with UO-31 renal and with IGROV1 ovarian was greater than 100 µM throughout.
On to `Cc1ccc(NC(=O)CC2SC(=Nc3ccc(Cl)cc3)NC2=O)cc1C` (centres undefined), for which the TGI is 33.4 µM in the assay on SF-268 CNS; 32.9 µM in the assay with HCT-116 colon; 17.9 µM with SK-MEL-2 melanoma; 36.6 µM with SK-MEL-5 melanoma; 29.4 µM in the assay with SR leukemia; 36.1 µM in the assay on M19-MEL melanoma. Also, the TGI in the assay on UO-31 renal is 32.6 µM; in the assay with IGROV1 ovarian it was greater than 60.8 µM.
`CC[As](CC)SCC1OC(OC(C)=O)C(OC(C)=O)C(OC(C)=O)C1OC(C)=O` (centres undefined): the TGI in the assay with XF 498 CNS was 32 µM; in the assay with SF-268 CNS, 25.8 µM; in the assay on HCT-116 colon it was 32.1 µM; in the assay with SK-MEL-2 melanoma, 26.2 µM; in the assay with SK-MEL-5 melanoma, 28.4 µM; in the assay on SR leukemia, 75.4 µM. The results for the TGI with M19-MEL melanoma, in the assay on UO-31 renal and with IGROV1 ovarian were 27.5 µM, 29.8 µM and 33.8 µM, respectively.
For `CN1C2(c3ccccc3)C(C(=O)c3ccccc3)=C(C(=O)c3ccccc3)C1(c1ccccc1)c1c(-c3ccccc3)sc(-c3ccccc3)c12`, the TGI with SF-268 CNS, in the assay on HCT-116 colon, in the assay with SK-MEL-5 melanoma, in the assay on SR leukemia, in the assay on M19-MEL melanoma and in the assay with UO-31 renal was greater than 100 µM throughout. This compound also gave a TGI in the assay with IGROV1 ovarian greater than 100 µM.
As for `O=C(Cc1nc2ccccc2o1)C(=O)Nc1ccc(Cl)cc1Cl`, the TGI was greater than 100 µM in the assay with SF-268 CNS; greater than 100 µM with HCT-116 colon; greater than 100 µM with SK-MEL-2 melanoma; 51.6 µM with SR leukemia; greater than 100 µM in the assay on M19-MEL melanoma; greater than 100 µM in the assay with UO-31 renal. For the same compound, the TGI in the assay with IGROV1 ovarian is greater than 100 µM.
As for `O=C(CC(=O)c1cccc([N+](=O)[O-])c1)C(=O)Nc1ccccc1`, the TGI in the assay on XF 498 CNS, with SF-268 CNS, in the assay on HCT-116 colon, in the assay with SK-MEL-2 melanoma, with SK-MEL-5 melanoma and with M19-MEL melanoma was greater than 100 µM in each case. Moreover, the TGI with UO-31 renal and in the assay with IGROV1 ovarian was greater than 100 µM in each case.
On to `[CH3][Hg]/[N]=C(/N)NC#N`, for which the GI50 was 16.3 µM with SF-268 CNS; 14.4 µM with HCT-116 colon; 3.65 µM with SK-MEL-2 melanoma; 8.9 µM with SK-MEL-5 melanoma; 4.39 µM in the assay with SR leukemia; 12.1 µM in the assay on M19-MEL melanoma. Moreover, the GI50 in the assay on UO-31 renal is 14.7 µM; with IGROV1 ovarian, 18.9 µM. In addition, the TGI in the assay on SF-268 CNS is 33.3 µM; with HCT-116 colon, 27.9 µM; with SK-MEL-2 melanoma, 26.7 µM; in the assay with SK-MEL-5 melanoma, 21.1 µM; with SR leukemia, 39.9 µM; in the assay with M19-MEL melanoma it was 25.2 µM. Moreover, the TGI was found to be 28 µM in the assay on UO-31 renal and 36.6 µM in the assay with IGROV1 ovarian.
As to `Cc1cc(C)nc(NS(=O)(=O)c2ccc(NC(=O)COC(=O)c3cccc4c(=O)c5ccccc5[nH]c34)cc2)n1`, the TGI in the assay on XF 498 CNS was greater than 100 µM; with SF-268 CNS it was greater than 100 µM; with HCT-116 colon, 55 µM; in the assay on SK-MEL-5 melanoma, greater than 100 µM; in the assay on SR leukemia, 76.4 µM; in the assay on M19-MEL melanoma, 42.1 µM. Moreover, the TGI with UO-31 renal and in the assay with IGROV1 ovarian was greater than 100 µM each time.
As for `Cc1cc(C)c(/C=N/NS(=O)(=O)c2ccccc2)c(C)c1`, the TGI in the assay on SF-268 CNS, with HCT-116 colon, in the assay with SK-MEL-2 melanoma, with SK-MEL-5 melanoma, in the assay with SR leukemia and in the assay with M19-MEL melanoma was greater than 100 µM throughout. In addition, the TGI in the assay on UO-31 renal and in the assay with IGROV1 ovarian was greater than 100 µM each time.
On to `COc1ccc([C@@H]2OC(=O)C3C2C(=O)O[C@H]3c2ccc(OC)cc2)cc1` (some centres undefined), for which the TGI in the assay with XF 498 CNS, in the assay on HCT-116 colon, in the assay on SK-MEL-2 melanoma, in the assay on SR leukemia, with M19-MEL melanoma and in the assay on UO-31 renal was greater than 100 µM in each case. Further, in the assay with IGROV1 ovarian, the TGI was greater than 100 µM.
Regarding `CC1C(O)=C(O)c2ccccc2N1O` (centres undefined), the TGI in the assay with XF 498 CNS, in the assay with SF-268 CNS, in the assay with HCT-116 colon, with SK-MEL-2 melanoma, in the assay on SK-MEL-5 melanoma and with M19-MEL melanoma was greater than 100 µM throughout. For the same compound, the TGI in the assay on UO-31 renal and in the assay on IGROV1 ovarian was greater than 100 µM each time.
As to `O=C(O)CCC1c2[nH]c3ccccc3c2CCN1Cc1ccccc1` (centres undefined), the TGI with SF-268 CNS, in the assay on HCT-116 colon, in the assay on SK-MEL-2 melanoma, with SK-MEL-5 melanoma, in the assay on SR leukemia and in the assay on M19-MEL melanoma was greater than 100 µM throughout. Besides, the TGI in the assay with UO-31 renal and in the assay on IGROV1 ovarian was greater than 100 µM in each case.
Take `CC1[C@@H]2CC=C3[C@H]4CCC5Cc6nc7c(nc6C[C@@]5(C)C4CC(=O)[C@]32CO[C@]12OC(C)(C)CC2O)CC1CC[C@@H]2C3=C[C@H]4O[C@@]5(O[C@@](C)(CO)C[C@@H]5O)C(C)[C@@]4(O)[C@]3(C)[C@@H](O)CC2[C@]1(C)C7` (some centres undefined): the GI50 with XF 498 CNS is 0.000725 µM and 0.00479 µM; in the assay with SF-268 CNS, 0.0011 µM and 0.00472 µM; in the assay on HCT-116 colon, 0.000846 µM and 0.00281 µM; in the assay with SK-MEL-2 melanoma, 0.0011 µM and 0.00208 µM; in the assay with SK-MEL-5 melanoma it was 0.00235 µM and 0.00215 µM; in the assay with SR leukemia, 0.000181 µM. Further, the GI50 with MDA-MB-435 is 0.00111 µM; with M19-MEL melanoma, 0.617 µM and 2.48 µM; in the assay on IGROV1 ovarian, 0.00399 µM and 0.0052 µM. Also, the TGI is 0.424 µM and 1.8 µM with XF 498 CNS; 0.253 µM and 0.441 µM with SF-268 CNS; 0.0837 µM and 0.532 µM in the assay on HCT-116 colon; 0.0242 µM and 0.0699 µM in the assay with SK-MEL-2 melanoma; 0.022 µM and 0.146 µM with SK-MEL-5 melanoma; 0.00856 µM with SR leukemia. Moreover, the TGI is 0.0168 µM in the assay on MDA-MB-435 and greater than 3.65 µM with M19-MEL melanoma.
